Results: BigSolDB 2.1

Row | solubility (mole fraction) (in n-hexane, 293.15 K) | solubility (mole fraction) (in n-hexane, 298.15 K) | solubility (mole fraction) (in n-hexane, 303.15 K) | solubility (mole fraction) (in n-hexane, 310.15 K) | solubility (mole fraction) (in n-hexane, 315.15 K) | solubility (mole fraction) (in n-octanol, 293.15 K) | solubility (mole fraction) (in n-octanol, 298.15 K) | solubility (mole fraction) (in n-octanol, 303.15 K) | solubility (mole fraction) (in n-octanol, 310.15 K) | solubility (mole fraction) (in n-octanol, 315.15 K) | SMILES
1 | 0.000144 | 0.000176 | 0.000215 | 0.00028 | 0.000344 | 0.0075 | 0.0093 | 0.0118 | 0.0156 | 0.0202 | CC(=O)c1ccc(N=C2SCC3CCCN2C3)cc1 (stereo not given)
2 | 7.1e-05 | 8.71e-05 | 0.000106 | 0.000134 | 0.000161 | 0.00305 | 0.00377 | 0.00454 | 0.00605 | 0.00736 | Cc1ccc(N=C2SCC3CCCN2C3)cc1Cl (stereo not given)
3 | 0.0033 | 0.00465 | 0.00654 | 0.0104 | 0.0135 | 0.145 | 0.157 | 0.171 | 0.193 | 0.209 | Cc1ccc(N=C2SCC3CCCN2C3)cc1 (stereo not given)
4 | 0.000248 | 0.000286 | 0.000339 | 0.000402 | 0.00046 | 0.0118 | 0.0132 | 0.0146 | 0.0171 | 0.0189 | FC(F)(F)c1ccc(N=C2SCC3CCCN2C3)cc1 (stereo not given)
5 | 0.00135 | 0.00158 | 0.00195 | 0.00246 | 0.00288 | 0.143 | 0.154 | 0.164 | 0.182 | 0.194 | CC(C)c1ccc(N=C2SCC3CCCN2C3)cc1 (stereo not given)
6 | 0.0015 | 0.00187 | 0.00224 | 0.00294 | 0.00359 | 0.0245 | 0.0296 | 0.0354 | 0.0469 | 0.0567 | Fc1ccc(N=C2SCC3CCCN2C3)cc1 (stereo not given)
7 | 0.000223 | 0.000271 | 0.000337 | 0.000422 | 0.000523 | 0.0087 | 0.0107 | 0.0131 | 0.0166 | 0.0202 | N#Cc1ccc(N=C2SCC3CCCN2C3)cc1 (stereo not given)
8 | 0.000225 | 0.000289 | 0.000382 | 0.000537 | 0.000673 | 0.0124 | 0.0139 | 0.0163 | 0.0194 | 0.0224 | CCc1ccc(N=C2SCC3CCCN2C3)cc1 (stereo not given)
